Test results: publication PMC7324608 (Scientific Reports, 2020)

How the values were obtained:
HtrA homolog A (HhoA) = conditions: cited from earlier work
HpHtrA S164A [1] = biological target: T1, HpHtrA S164A (Helicobacter pylori, UniProt G2J5T2, S164A); test: biochemical
T1 sequence (G2J5T2 18-475 S164A): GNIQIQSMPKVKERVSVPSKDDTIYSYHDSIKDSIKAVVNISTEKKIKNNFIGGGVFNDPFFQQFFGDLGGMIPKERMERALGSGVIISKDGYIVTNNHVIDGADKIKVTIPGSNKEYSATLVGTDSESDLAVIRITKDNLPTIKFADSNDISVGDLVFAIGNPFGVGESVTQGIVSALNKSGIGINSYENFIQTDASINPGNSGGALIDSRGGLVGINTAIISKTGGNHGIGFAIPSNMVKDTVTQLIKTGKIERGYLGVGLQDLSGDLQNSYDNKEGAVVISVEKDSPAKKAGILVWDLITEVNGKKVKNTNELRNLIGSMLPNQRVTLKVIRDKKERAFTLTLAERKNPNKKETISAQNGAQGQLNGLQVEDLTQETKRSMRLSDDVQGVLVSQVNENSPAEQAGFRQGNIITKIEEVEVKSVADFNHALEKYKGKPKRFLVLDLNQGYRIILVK
Method: Synthesis of 2-Abz-AQRVAFY(3-NO2)-NH2. The peptide was assembled manually on a 20 µmol scale.
The side-chain protecting groups were Pbf for Arg, and Trt for Gln. Fmoc deprotection was carried out with 25% piperidine in DMF/NMP (80:20, v/v) for 3 min, and 12.5% piperidine in DMF/NMP (80:20, v/v) for 12 min. The double couplings (2x45 min) were accomplished with the mixture Fmoc-AA-OH/HOBt/HBTU/DIPEA (5:5:4.8:10 equiv.). 2 -Boc-Abz-OH was coupled with the same protocol.
Afterwards, the peptidyl-resin was treated with 25% piperidine in DMF/NMP (80:20, v/v) (2x12 min) to deacylate the 3-nitro-tyrosine side chain. The peptide was simultaneously cleaved from the resin and deprotected by using the mixture TFA/H2O/TIA/EDT/TIS (90:3:1:3:3; Vtot = 1 ml) for about 3 h, precipitated from ice-cold diethyl ether, recovered by centrifugation at 4 °C for 6 min, washed four times with ice-cold diethyl ether, and dried in vacuo. The solid was dissolved in water and lyophilized.
Microscale thermophoresis .
D168A, MicroScale Thermophoresis (MST) analysis was performed using the Monolith NT.115 (NanoTemper Technologies). HpHtrA proteases were labeled with red fluorescent dye NT -650-NHS (amine reactive) according to the manufacturer’s protocol. Remaining free dye was removed by buffer exchange column chromatography and proteins were eluted in 50 mM Tris pH 7.4, 150 mM NaCl, 0.04% Tween. 5 nM of labelled HpHtrA was incubated for 15 minutes at RT with decreasing […]
Measurement was performed with premium treated capillaries (NanoTemper Technologies) and the Monolith NT.115 Microscale Thermophoresis device. Data analysis was performed with MO.Affinity Analysis v2.3 (NanoTemper Technologies) and GraphPad Prism Software (Version 8.0.2). Three independent experiments were […]

HpHtrA S164A [2] = biological target: T1, HpHtrA S164A; test: thermal shift assay; format: binding; design: (HpHtrA, G18-K475, UniProt G2J5T2); GST (N, cleaved yes); made in house; host or cells: E. coli BL21
Method: Recombinant HpHtrA proteins (wt, S164A, D165A, S166A, D168A) in 50 mM HEPES buffer (pH 7.4) were mixed with SYPRO Orange (Sigma-Aldrich, Vienna, Austria) to final concentrations of 4 µM HpHtrA and 7 × SYPRO Orange in a 96-well PCR plate. […] Fluorescence data was collected using an Applied Bioscience StepOne Plus PCR cycler (Thermo Fisher Scientific, Schwerte, Germany) during a temperature ramp from 25–95 °C (0.5 °C per min) with a 4 min hold at 25 °C and 95 °C. SYPRO Orange binds to exposed hydrophobic regions within the denatured HpHtrA proteins, which increases the fluorescence of the dye[57],[58]. The fluorescence emission signal can then be used to determine the melting temperature of the protein, which is located at the infliction point of the fluorescence signal curve. The experiment was performed in triplicates.

SMILES | effect on HhoA in a casein cleavage assay (HtrA homolog A (HhoA)) | Kd (HpHtrA S164A [1]) | Response amplitude (HpHtrA S164A [1]; MST, 5 nM labelled HpHtrA S164A) | S/N (signal to noise ratio) (HpHtrA S164A [1]; MST, HpHtrA S164A) | thermal destabilization (ΔTm) (HpHtrA S164A [2]; higher concentrations of ion) | thermal stabilization (ΔTm) (HpHtrA S164A [2]; low/increasing concentrations of ion)
[Zn+2] [Zn^++, ZnCl2] | inactivates | 55 ± 34 µM | 3.6 | 6.0 |  | 
[Cu+2] [Cu^++, CuCl2] |  |  |  |  | destabilized | stabilized
